{"source": "PubChem BioAssay (NCI)", "experiment_in_all_cases": "NCI anticancer screen, dose series, 48 h", "key": {"[1]": {"test_system": "KM12 colon"}, "[2]": {"test_system": "IGROV1 ovarian"}, "[3]": {"test_system": "HCT-15 colon"}, "[4]": {"test_system": "U251 CNS"}, "[5]": {"test_system": "LOX IMVI melanoma"}, "[6]": {"test_system": "SK-MEL-28 melanoma"}, "[7]": {"test_system": "786-0 renal"}, "[8]": {"test_system": "HOP-92 NSCLC"}, "[9]": {"test_system": "PC-3 prostate"}, "[10]": {"test_system": "NCI-H226 lung"}, "[11]": {"test_system": "UACC-257 melanoma"}, "[12]": {"test_system": "SN12C renal"}, "[13]": {"test_system": "EKVX NSCLC"}, "[14]": {"test_system": "HCT-116 colon"}, "[15]": {"test_system": "NCI-H23 lung"}, "[16]": {"test_system": "SF-295 CNS"}, "[17]": {"test_system": "OVCAR-8 ovarian"}, "[18]": {"test_system": "DU-145 prostate"}, "[19]": {"test_system": "HL-60(TB) leukemia"}, "[20]": {"test_system": "M14 melanoma"}, "[21]": {"test_system": "SNB-75 CNS"}, "[22]": {"test_system": "MOLT-4 leukemia"}, "[23]": {"test_system": "OVCAR-5 ovarian"}, "[24]": {"test_system": "OVCAR-3 ovarian"}, "[25]": {"test_system": "COLO 205 colon"}, "[26]": {"test_system": "NCI/ADR-RES ovarian"}, "[27]": {"test_system": "TK-10 renal"}, "[28]": {"test_system": "A549 NSCLC"}, "[29]": {"test_system": "MDA-N"}, "[30]": {"test_system": "SNB-19 CNS"}, "[31]": {"test_system": "SK-MEL-2 melanoma"}, "[32]": {"test_system": "MDA-MB-231 breast"}, "[33]": {"test_system": "MCF7 breast"}, "[34]": {"test_system": "SF-539 CNS"}, "[35]": {"test_system": "NCI-H460 lung"}, "[36]": {"test_system": "SK-OV-3 ovarian"}, "[37]": {"test_system": "SW-620 colon"}, "[38]": {"test_system": "T-47D breast"}, "[39]": {"test_system": "OVCAR-4 ovarian"}, "[40]": {"test_system": "HOP-62 NSCLC"}, "[41]": {"test_system": "UO-31 renal"}, "[42]": {"test_system": "HCC-2998 colon"}, "[43]": {"test_system": "SK-MEL-5 melanoma"}, "[44]": {"test_system": "CAKI-1 renal"}, "[45]": {"test_system": "HT29 colon"}, "[46]": {"test_system": "NCI-H522 lung"}, "[47]": {"test_system": "ACHN renal"}, "[48]": {"test_system": "BT-549 breast"}, "[49]": {"test_system": "SR leukemia"}, "[50]": {"test_system": "K-562 leukemia"}, "[51]": {"test_system": "RXF 393 renal"}, "[52]": {"test_system": "RPMI-8226 leukemia"}, "[53]": {"test_system": "CCRF-CEM leukemia"}, "[54]": {"test_system": "UACC-62 melanoma"}, "[55]": {"test_system": "MDA-MB-435"}}, "note": "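The compound was tested at five concentrations on cells cultured in 96-well plates, with a 48-hour exposure period. The concentration for full growth arrest is given as TGI.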", "data": [{"smiles": "CC(C)Oc1c(O)c2c3c(oc(=O)n3C=CC2c2ccccc2)c1OC(C)C", "note": "(configuration not stated)", "values": [{"measurement": "TGI", "setting": "[1]", "value": 89.6, "unit": "µM"}, {"measurement": "TGI", "setting": "[2]", "value": 83.1, "unit": "µM"}, {"measurement": "TGI", "setting": "[3]", "value": 33.7, "unit": "µM"}, {"measurement": "TGI", "setting": "[4]", "value": 45.2, "unit": "µM"}, {"measurement": "TGI", "setting": "[5]", "value": "> 100", "unit": "µM"}, {"measurement": "TGI", "setting": "[6]", "value": 54.5, "unit": "µM"}, {"measurement": "TGI", "setting": "[7]", "value": "> 100", "unit": "µM"}, {"measurement": "TGI", "setting": "[8]", "value": "> 100", "unit": "µM"}, {"measurement": "TGI", "setting": "[9]", "value": 57.1, "unit": "µM"}, {"measurement": "TGI", "setting": "[10]", "value": "> 100", "unit": "µM"}, {"measurement": "TGI", "setting": "[11]", "value": "> 100", "unit": "µM"}, {"measurement": "TGI", "setting": "[12]", "value": "> 100", "unit": "µM"}, {"measurement": "TGI", "setting": "[13]", "value": 74, "unit": "µM"}, {"measurement": "TGI", "setting": "[14]", "value": "> 100", "unit": "µM"}, {"measurement": "TGI", "setting": "[15]", "value": 52.2, "unit": "µM"}, {"measurement": "TGI", "setting": "[16]", "value": 49.1, "unit": "µM"}, {"measurement": "TGI", "setting": "[17]", "value": "> 100", "unit": "µM"}, {"measurement": "TGI", "setting": "[18]", "value": "> 100", "unit": "µM"}, {"measurement": "TGI", "setting": "[19]", "value": 91.4, "unit": "µM"}, {"measurement": "TGI", "setting": "[20]", "value": 41.4, "unit": "µM"}, {"measurement": "TGI", "setting": "[21]", "value": 53.2, "unit": "µM"}, {"measurement": "TGI", "setting": "[22]", "value": "> 100", "unit": "µM"}, {"measurement": "TGI", "setting": "[23]", "value": "> 100", "unit": "µM"}, {"measurement": "TGI", "setting": "[24]", "value": 80.5, "unit": "µM"}, {"measurement": "TGI", "setting": "[25]", "value": 60.1, "unit": "µM"}, {"measurement": "TGI", "setting": "[26]", "value": "> 100", "unit": "µM"}, {"measurement": "TGI", "setting": "[27]", "value": 68.2, "unit": "µM"}, {"measurement": "TGI", "setting": "[28]", "value": 92.1, "unit": "µM"}, {"measurement": "TGI", "setting": "[29]", "value": "> 100", "unit": "µM"}, {"measurement": "TGI", "setting": "[30]", "value": "> 100", "unit": "µM"}, {"measurement": "TGI", "setting": "[31]", "value": 40.1, "unit": "µM"}, {"measurement": "TGI", "setting": "[32]", "value": "> 100", "unit": "µM"}, {"measurement": "TGI", "setting": "[33]", "value": "> 100", "unit": "µM"}, {"measurement": "TGI", "setting": "[34]", "value": 43.1, "unit": "µM"}, {"measurement": "TGI", "setting": "[35]", "value": 35.1, "unit": "µM"}, {"measurement": "TGI", "setting": "[36]", "value": "> 100", "unit": "µM"}, {"measurement": "TGI", "setting": "[37]", "value": 82.8, "unit": "µM"}, {"measurement": "TGI", "setting": "[38]", "value": "> 100", "unit": "µM"}, {"measurement": "TGI", "setting": "[39]", "value": "> 100", "unit": "µM"}, {"measurement": "TGI", "setting": "[40]", "value": "> 100", "unit": "µM"}, {"measurement": "TGI", "setting": "[41]", "value": 37.2, "unit": "µM"}, {"measurement": "TGI", "setting": "[42]", "value": 35.3, "unit": "µM"}, {"measurement": "TGI", "setting": "[43]", "value": "> 100", "unit": "µM"}, {"measurement": "TGI", "setting": "[44]", "value": 67.7, "unit": "µM"}, {"measurement": "TGI", "setting": "[45]", "value": 77.4, "unit": "µM"}]}, {"smiles": "CCN(C(=O)N[C@@H](Cc1ccccc1)C(=O)N[C@@H](CC(C)C)C(=O)OC)c1ccccc1", "values": [{"measurement": "TGI", "setting": "[1]", "value": "> 100", "unit": "µM"}, {"measurement": "TGI", "setting": "[2]", "value": 42.2, "unit": "µM"}, {"measurement": "TGI", "setting": "[3]", "value": 34.5, "unit": "µM"}, {"measurement": "TGI", "setting": "[4]", "value": 72.7, "unit": "µM"}, {"measurement": "TGI", "setting": "[5]", "value": 30.1, "unit": "µM"}, {"measurement": "TGI", "setting": "[6]", "value": 32.6, "unit": "µM"}, {"measurement": "TGI", "setting": "[7]", "value": 40.5, "unit": "µM"}, {"measurement": "TGI", "setting": "[8]", "value": 59.5, "unit": "µM"}, {"measurement": "TGI", "setting": "[9]", "value": 97.4, "unit": "µM"}, {"measurement": "TGI", "setting": "[10]", "value": 47.6, "unit": "µM"}, {"measurement": "TGI", "setting": "[46]", "value": 22.6, "unit": "µM"}, {"measurement": "TGI", "setting": "[11]", "value": 54.3, "unit": "µM"}, {"measurement": "TGI", "setting": "[12]", "value": 43.8, "unit": "µM"}, {"measurement": "TGI", "setting": "[13]", "value": 58.8, "unit": "µM"}, {"measurement": "TGI", "setting": "[14]", "value": 39.2, "unit": "µM"}, {"measurement": "TGI", "setting": "[47]", "value": 51.3, "unit": "µM"}, {"measurement": "TGI", "setting": "[15]", "value": 53.8, "unit": "µM"}, {"measurement": "TGI", "setting": "[16]", "value": 84.3, "unit": "µM"}, {"measurement": "TGI", "setting": "[17]", "value": 36.7, "unit": "µM"}, {"measurement": "TGI", "setting": "[18]", "value": 31.7, "unit": "µM"}, {"measurement": "TGI", "setting": "[48]", "value": "> 100", "unit": "µM"}, {"measurement": "TGI", "setting": "[20]", "value": 21.9, "unit": "µM"}, {"measurement": "TGI", "setting": "[49]", "value": 23.9, "unit": "µM"}, {"measurement": "TGI", "setting": "[22]", "value": 44.2, "unit": "µM"}, {"measurement": "TGI", "setting": "[23]", "value": 66.6, "unit": "µM"}, {"measurement": "TGI", "setting": "[24]", "value": 72, "unit": "µM"}, {"measurement": "TGI", "setting": "[25]", "value": 32.2, "unit": "µM"}, {"measurement": "TGI", "setting": "[26]", "value": "> 100", "unit": "µM"}, {"measurement": "TGI", "setting": "[27]", "value": "> 100", "unit": "µM"}, {"measurement": "TGI", "setting": "[28]", "value": "> 100", "unit": "µM"}, {"measurement": "TGI", "setting": "[29]", "value": "> 100", "unit": "µM"}, {"measurement": "TGI", "setting": "[30]", "value": "> 100", "unit": "µM"}, {"measurement": "TGI", "setting": "[31]", "value": "> 100", "unit": "µM"}, {"measurement": "TGI", "setting": "[32]", "value": "> 100", "unit": "µM"}, {"measurement": "TGI", "setting": "[50]", "value": "> 100", "unit": "µM"}, {"measurement": "TGI", "setting": "[51]", "value": 37.7, "unit": "µM"}, {"measurement": "TGI", "setting": "[33]", "value": 62, "unit": "µM"}, {"measurement": "TGI", "setting": "[34]", "value": 36.1, "unit": "µM"}, {"measurement": "TGI", "setting": "[35]", "value": 24.9, "unit": "µM"}, {"measurement": "TGI", "setting": "[36]", "value": "> 100", "unit": "µM"}, {"measurement": "TGI", "setting": "[37]", "value": 75, "unit": "µM"}, {"measurement": "TGI", "setting": "[52]", "value": 56.9, "unit": "µM"}, {"measurement": "TGI", "setting": "[53]", "value": "> 100", "unit": "µM"}, {"measurement": "TGI", "setting": "[38]", "value": "> 100", "unit": "µM"}, {"measurement": "TGI", "setting": "[54]", "value": 36.1, "unit": "µM"}, {"measurement": "TGI", "setting": "[39]", "value": "> 100", "unit": "µM"}, {"measurement": "TGI", "setting": "[40]", "value": 70.6, "unit": "µM"}, {"measurement": "TGI", "setting": "[41]", "value": 33.3, "unit": "µM"}, {"measurement": "TGI", "setting": "[42]", "value": "> 100", "unit": "µM"}, {"measurement": "TGI", "setting": "[44]", "value": 84.7, "unit": "µM"}, {"measurement": "TGI", "setting": "[45]", "value": 27.3, "unit": "µM"}, {"measurement": "TGI", "setting": "[55]", "value": "> 100", "unit": "µM"}]}]}
